We go through ten compounds from patent publication US11160767B2, “4,4′-trans-dihydroxystilbene for use in treating cancer” (The George Washington University, a Congressionally …, priority 2017, dated 2021).

Test [1] concerns HCT116. Put plainly: In vitro cytotoxicity (SRB assay), HCT116. Particulars: Homo sapiens, HCT-116, 72 hours. In kind it is cell-based. How it is done:
(§1) Cell lines and cell culture. HCT116, U205, PANC-1, MDA-231 cell lines were purchased from the American Type Culture Collection (Rockville, Md., US). Cells were cultured in the DMEM medium (Lonza, Basel, Switzerland) containing 10% fetal bovine serum (Gibco, Grand Island, N.Y., US), 100 Units/ml penicillin, 100 Units/mL streptomycin, […] L-glutamine (Gibco, Grand Island, N.Y., US) at 37° C. in a humidified atmosphere with 5% CO2.
(§2) In vitro cytotoxicity assays. […] SRB assay (Vichai and Kirtikara, 2006) was performed and the absorbance at 510 nm was read with a plate reader. The proliferation rate was calculated according to the Manufacturer's instruction. The IC50 value for each compound was determined from dose-effect relationship using the CompuSyn software (version 1.0.1; CompuSyn, Inc, Paramus, N.J.) (Chou, 2006). Cell proliferating doubling time was monitored over a period of 72 hours.

In test [2] the test system is U2OS. Put plainly: In vitro cytotoxicity (SRB assay), U2OS. The test is classed as cell-based. Particulars: Homo sapiens, 72 hours. As to the method: as §1, §2
Test [3] concerns MDA-231/GFP. Nature of the test: In vitro cytotoxicity (SRB assay), MDA-231/GFP. In kind it is cell-based. Particulars: Homo sapiens, MDA-MB-231, 72 hours. How it is done:
as §1, §2

Test [4] has as its system PANC-1. Nature of the test: In vitro cytotoxicity (SRB assay), PANC-1. The test is classed as cell-based. As to conditions: Homo sapiens, 72 hours. How it is done:
as §1, §2

Test [5] has as its system HCT116 cells, U2OS cells, MDA-231/GFP cells, and PANC-1 cells. Put plainly: Cytotoxicity across the four cancer cell lines (SAR summary). In kind it is cell-based. As to conditions: range over four cell lines. As to the method:
In vitro cytotoxicity assays. Cells growing in the Log phase were treated with various compounds at different concentrations (generally 0.137 to 100 μM) for 72 hours at 37° C. SRB assay (Vichai and Kirtikara, 2006) was performed and the absorbance at 510 nm was read with a plate reader. The proliferation rate was calculated according to the Manufacturer's instruction. The IC50 value for each compound was determined from dose-effect relationship using the CompuSyn software (version 1.0.1; CompuSyn, Inc, Paramus, N.J.) (Chou, 2006). Cell proliferating doubling time was monitored over a period of 72 hours.
Based on identification of resveratrol as a lead compound in the drug screening assays, the anti-cancer activity of synthetic resveratrol analogs (FIG. 2) was next investigated and compared to resveratrol using HCT116 cells, U2OS cells, MDA-231/GFP cells, and PANC-1 cells.
The structure activity relationship (SAR) of the derivatives of resveratrol were considered.

Test [6] addresses T1, RRM1 (Homo sapiens, UniProt P23921).
T1 construct: endogenous in cells; host or cells: HCT116
Put plainly: Thermal shift assay in HCT116 cells, RRM1. In kind it is cell-based. As to the method: (§3) To investigate binding of DHS to RRM1 and RRM2, a thermal shift assay was performed in HCT116 cells treated with DMSO (vehicle), resveratrol, DHS, gemcitabine, or hydroxyurea (Hu). Gemcitabine is known to bind RRM1 (Plunkett et al., 1995 and Chen et al., 2011), and Hu has been reported to bind RRM2 (Thelander et al., 1985). […] DHS stabilized RRM2 protein in a dose responsive manner (5 to 20 μM DHS; FIG. 11A). To rule out nonspecific effects of DHS on RRM2, an in vitro thermal shift assay was conducted. Purified RRM1 and RRM2 were mixed and then incubated with DHS or Hu for 4 hours before performing the assay.

Test [7] has as its system HCT116 cells. Put plainly: DNA fiber assay. In kind it is cell-based, human. As to conditions: added 2 hours prior to labeling. How it is done: Thus, the effect of DHS on DNA replication and cell cycle progression was investigated. Replication fork speeds were examined by DNA fiber assay (FIG. 7A). Briefly, DHS, hydroxyurea (Hu), or Aphidicolin (Aph) was added to HCT116 cells 2 hours prior to labeling of DNA with iododeoxyuridine (IdU) and/or chlorodeoxyuridine (CldU).

The test system of test [8] is HCT116 cells. Nature of the test: dNTP amount in treated cells. In kind it is cell-based, human. The text has this: The effect of DHS on dNTP synthesis was investigated by measuring the amount of dNTPs in DHS-treated HCT116 cells.
For test [9], the target named is T2, RRM2 (Homo sapiens, UniProt P31350).
T2 construct: endogenous in cells; host or cells: HCT116
T2 sequence (P31350 1-389): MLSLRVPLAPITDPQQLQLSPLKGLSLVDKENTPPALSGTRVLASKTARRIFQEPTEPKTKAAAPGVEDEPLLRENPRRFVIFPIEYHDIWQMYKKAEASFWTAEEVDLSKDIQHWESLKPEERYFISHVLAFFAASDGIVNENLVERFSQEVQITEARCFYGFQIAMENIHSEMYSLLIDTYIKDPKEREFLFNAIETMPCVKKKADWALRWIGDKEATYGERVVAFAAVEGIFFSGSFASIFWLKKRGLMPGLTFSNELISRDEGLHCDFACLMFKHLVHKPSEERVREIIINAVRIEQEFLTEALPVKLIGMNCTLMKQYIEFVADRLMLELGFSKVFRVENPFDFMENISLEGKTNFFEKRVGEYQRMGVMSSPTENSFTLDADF
Nature of the test: Thermal shift assay in HCT116 cells, RRM2. The test is classed as cell-based. How it is done: as §3

Test [10] deals with HCT116 cells. Nature of the test: Cell-cycle assay. Particulars: 10 μM. The test is classed as cell-based, human. As to the method:
A cell-cycle assay was conducted to study whether DHS would affect cell-cycle progression.

Test [11] deals with And-1. Put plainly: High-throughput screening, HEK-293T-And-1-Luc cells. As to conditions: 48 hours. In kind it is cell-based. As to the method: High-throughput drug screening was performed using a HEK-293T-And-1-Luc cell line expressing Luciferase fused to And-1 (FIG. 1A). The level of cellular Luciferase activity was reflective of the level of And-1 protein. […] In the drug screening assays, cells were treated with testing drugs for 48 hours.

Test [12] has as its system HCT116 xenograft tumor. Nature of the test: HCT116 xenograft tumor model. The test is classed as in vivo, nude mice. Particulars: Day 38; DHS 50 mg/kg i.p. 14 consecutive days; cisplatin 8 mg/kg i.p.
Method: Xenograft mouse models. […] In xenograft studies, HCT116 (3×10^6 cells) and IGROV3/CP2 (5×10^6 cells) suspended in 100 μl of phosphate buffered saline (PBS, pH 7.4) were injected subcutaneously into the lower flank of the mice. Testing compounds were dissolved in DMSO/Tween 80/saline (10:10:80; v/v/v) buffer and were used to treat animals through intraperitoneal (i.p.) injection. […] The body weight of animals was measured throughout the study. Tumor diameters were measured with digital calipers, and the tumor volume in mm^3 was calculated by the formula: Volume=(width)^2×length/2.
HCT116 cells (5×10^6) were injected subcutaneously in nude mice and grown to approximately 100 mm^3 in volume. […] To study the preclinical toxicity of DHS, samples of hearts, livers, spleens, lung, and kidneys were collected on Day 38 and sections were stained for histological examination.

T1 sequence (P23921 whole entry): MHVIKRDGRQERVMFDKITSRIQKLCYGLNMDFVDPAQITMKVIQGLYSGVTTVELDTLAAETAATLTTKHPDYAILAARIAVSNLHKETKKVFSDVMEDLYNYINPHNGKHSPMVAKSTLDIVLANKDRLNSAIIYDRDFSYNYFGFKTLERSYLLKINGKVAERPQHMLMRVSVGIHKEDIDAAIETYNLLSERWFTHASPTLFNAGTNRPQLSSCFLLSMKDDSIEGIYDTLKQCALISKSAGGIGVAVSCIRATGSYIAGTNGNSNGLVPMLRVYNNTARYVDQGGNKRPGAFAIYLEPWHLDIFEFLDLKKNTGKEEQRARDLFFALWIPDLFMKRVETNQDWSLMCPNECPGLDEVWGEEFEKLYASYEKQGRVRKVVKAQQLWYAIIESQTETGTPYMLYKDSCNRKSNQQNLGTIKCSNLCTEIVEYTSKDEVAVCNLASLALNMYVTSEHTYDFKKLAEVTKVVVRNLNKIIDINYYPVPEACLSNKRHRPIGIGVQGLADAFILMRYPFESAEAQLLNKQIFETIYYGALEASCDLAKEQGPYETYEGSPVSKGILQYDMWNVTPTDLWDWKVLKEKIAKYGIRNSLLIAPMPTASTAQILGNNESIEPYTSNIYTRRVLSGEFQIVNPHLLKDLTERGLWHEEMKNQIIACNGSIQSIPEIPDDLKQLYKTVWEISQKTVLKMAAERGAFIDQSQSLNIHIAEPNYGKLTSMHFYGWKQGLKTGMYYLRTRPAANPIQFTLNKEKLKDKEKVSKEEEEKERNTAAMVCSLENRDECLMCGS

On to `Oc1ccc(/C=C/c2ccccc2)cc1O` [#4, (E)-4-styrylbenzene-1,2-diol], for which the IC50 (usually the concentration at which inhibition is half-maximal) is 50.2 ± 9.72 µM in test [1]; 33.6 ± 28 µM in [2]; 13.7 ± 2.98 µM in [3]; 57.1 ± 44.7 µM in test [4]; 13.7 to 57.1 µM in [5].
With `Nc1ccn([C@@H]2O[C@H](CO)[C@@H](O)C2(F)F)c(=O)n1` [Gemcitabine, reference compound], the IC50 in test [1] is 0.046 ± 0.041 µM; in test [2], 0.51 ± 0.17 µM; in test [3] it was 0.03 ± 0.04 µM; in test [4], 7.43 ± 5.24 µM. In addition, in test [6], the “RRM1 levels in thermal shift assay (binding)” value was “robust levels of RRM1”.
On to `Oc1ccc(/C=C/c2ccccc2)cc1` [#3, (E)-4-styrylphenol], for which the IC50 was 32.2 ± 5.88 µM in [1]; 23.6 ± 3.83 µM in test [2]; 45.1 ± 13.9 µM in test [3]; 109 ± 63.7 µM in test [4]; 23.6 to 109 µM in test [5].
Take `C[C@@]1(CO)[C@H](O)CC[C@@]2(C)[C@H]1CC[C@H]1C[C@@H]3C[C@@]12CC[C@]3(O)CO` [Aph, Aphidicolin, reference compound]: the DNA replication stalling entry in test [7] was “caused DNA replication stalling”.
`NC(=O)NO` [Hydroxyurea, reference compound]: the IC50 in test [1] is 306 ± 61.1 µM; in [2], 262 ± 181 µM; in test [3], 704 µM; in test [4], 2400 ± 485 µM. Moreover, the DNA replication stalling result in test [7] is reported as “caused DNA replication stalling”. Further, the dNTP synthesis entry in test [8] is recorded as “did not”. The “RRM2 levels in thermal shift assay (binding)” value in test [9] is reported as “robust levels of RRM2”.
Take `Oc1ccc(/C=C/C=C/c2ccc(O)cc2)cc1` [#1, 4,4′-((1E,3E)-buta-1,3-diene-1,4-diyl)diphenol]: the IC50 in test [1] was determined as 6.48 ± 3.98 µM; in test [2], 1.1 ± 1.05 µM; in [3], 70.7 ± 16.7 µM; in [4] it was 308 ± 86.3 µM.
For the compound `Oc1ccc(/C=C/c2cc(O)cc(O)c2)cc1` [Resveratrol, 3,5,4′-trihydroxy-trans-stilbene, reference compound], the IC50 in test [1] was 24.5 ± 3.32 µM; in [2] it was 30.2 ± 4.22 µM; in [3] it was 42.4 ± 4.9 µM; in test [4] it was 82 ± 24.4 µM; in test [5] it was 24.5 to 82 µM. Also, in [10], the “Effect on cell-cycle progression” value is on record as “did not change the cell-cycle population”. The dNTP synthesis result in [8] is “did not”. Moreover, the “And-1 protein level (luciferase activity)” value in [11] was “causing down-regulation of And-1 protein”.
On to `Oc1ccc(/C=C/C=C/c2ccccc2)cc1O` [#5, 4-((1E,3E)-4-phenylbuta-1,3-dien-1-yl)benzene-1,2-diol], for which the IC50 in test [1] is 9.5 ± 3.64 µM; in test [2], 4.66 ± 2.67 µM; in test [3], 5.47 ± 4.02 µM; in test [4], 18.4 ± 8.87 µM.
For the compound `N.N.[Cl][Pt][Cl]` [Cisplatin, reference compound], in test [12], the “Reduction in tumor volume as compared with the vehicle control group” value was around 50%.
Regarding `Oc1ccc(/C=C/C=C/C=C/c2ccc(O)cc2)cc1` [#2, 4,4′-((1E,3E,5E)-hexa-1,3,5-triene-1,6-dyl)diphenol], the IC50 amounted to 11.7 ± 6.46 µM in test [1], 0.37 ± 0.28 µM in [2], 57.9 ± 15.4 µM in [3] and 123 ± 93.4 µM in test [4].
